Patent US8318781B2, “G-protein-conjugated receptor agonist” (Japan Science and Technology Agency, priority 2007, dated 2012)

How the values were obtained:
Format in all cases: cell-based
human GPR120 (hGPR120) [1] = molecular target: T1, human GPR120 (hGPR120) (Homo sapiens, UniProt Q5NUL3); experiment: Determination of intracellular Ca2+ concentration (FLIPR), cell line TXGPR120; conditions: for agonistic activity for hGPR120 (in words): cells in which GPR120 has been transgenically expressed
T1 construct: expressed in transfected cells; doxycycline-inducible expression vector
T1 sequence (Q5NUL3 1-361): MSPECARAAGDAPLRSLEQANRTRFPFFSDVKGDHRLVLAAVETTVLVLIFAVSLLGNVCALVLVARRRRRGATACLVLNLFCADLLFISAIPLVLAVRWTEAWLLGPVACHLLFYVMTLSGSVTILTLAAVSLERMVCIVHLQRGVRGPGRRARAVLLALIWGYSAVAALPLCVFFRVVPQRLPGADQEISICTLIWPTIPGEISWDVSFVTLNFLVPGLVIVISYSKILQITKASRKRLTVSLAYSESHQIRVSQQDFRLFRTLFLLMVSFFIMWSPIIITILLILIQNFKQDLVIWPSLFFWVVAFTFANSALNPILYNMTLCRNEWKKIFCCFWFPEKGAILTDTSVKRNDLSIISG
Experimental: (§1) (1) In this test, The cell lines TXGPR40, TXGPR120 and GPR120/Flp-in were plated onto a collagen-coated black 96-well plate in 2×10^5 cells/well. The 96-well plates containing the cells were centrifuged and treated with Doxycycline (final concentration 10 μg/mL), incubated in a CO2 incubator for 21 hours, then used for assay.
(§2) (2) The ligand used in this test includes NCP04, NCP14, NCG20, NCG21, NCG22, NCG23, NCP02, NCP03, NCP05, NCP06, NCG14, NCG17, NCG19, NCG28, NCG29, NCG30, NCG31, NCG34, NCG35, NCG37, NCG38, NCG44, NCG45, NCG46, and NCG54. Each ligand was dissolved in DMSO and adjusted to the concentration of 10 mM, then diluted with Hanks' Balanced Salt Solution (pH 7.4) containing 20 mM HEPES (referred to as FLIPR buffer hereinafter) to the final concentration of 1 to 100 μM. 1% DMSO was used as the negative control, and LA was used as the positive control.
(§3) The ligands and controls were placed in different 96-well plates from the plates for the cells.
(§4) (3) The 96-well plate containing the cells was removed from the CO2 incubator. A fluorescent dye prepared in a twofold higher concentration (Ca Assay Kit Component A diluted with FLIPR Buffer) was added in 50 μL/well, then allowed to stand in the dark at room temperature for one hour.
(§5) (4) After one hour, the 96-well plate containing the cells and the 96-well plate in which ligands and controls were prepared were set on FLIPR (Fluorometric Imaging Plate Reader) for determination.
(§6) (5) Fluorometry using FLIPR was carried out at a laser output of 1.0 W for five minutes. […] after the start of the determination, the ligand (25 μL) was added dropwise to the cell plate at a rate of 50 μL/sec. The intensity of fluorescence was automatically digitized by the application program installed in the FLIPR from the image taken by the CCD camera (with exposure time of 0.40 sec). The interval of data sampling was one second for the initial one minute after the start of operation, and six seconds for the subsequent four minutes.
(§7) (6) The maximum fluorescence intensity was obtained from the data showing the change in the fluorescence intensity over time observed in each well. The maximum fluorescence intensity was plotted against ligand concentration, and pEC50 was calculated. The ratio of the fluorescence intensity for each ligand to LA at 10 μM was calculated as the relative intensity of each ligand.

human GPR120 (hGPR120) [2] = molecular target: T1, human GPR120 (hGPR120); experiment: ERK assay, screening for GPR120 ligands in cell line TXGPR120;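 on ERK/GPR120 10 μM: signals normalized between DMSO and PMA controls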
Experimental: (§8) This Test 1 was carried out by using the following materials and methods.
(§9) (1) In this test, the cell lines TXGPR40 and TXGPR120 were plated in 35-mm dishes in 5×10^5 cells/per dish.
(§10) Each ligand was dissolved in DMSO, diluted tenfold with the medium to make the total amount of 100 μl. DMSO was used as the negative control, and PMA (phorbol-12-myristate-13-acetate) was used as the positive control.
(§11) (3) The medium was removed from the dish of the cell to reduce the total amount of liquid to 0.9 ml.
(§12) (4) The ligand solution was added dropwise to the cell solution, and dispersed by gently shaking the dish, and allowed to react at room temperature.
(§13) (5) After 5 minutes of reaction, the medium was discarded, and the remaining medium on the dish was removed on ice using an aspirator.
(§14) (6) 150 μl of Lysis buffer (50 mM HEPES (pH 7.0), 150 mM NaCl, 10% glycerol, 1% NonidetP-40, 2 mM MgCl2, 1 mM EDTA, 100 mM NaF, 10 mM sodium phosphate, 1 mM Na3VO4, 20 mM β-glycerophosphate, and Proteinase inhibitor) were added, then the cells were collected using a cell scraper.
(§15) (1) The crude enzyme solution mixed with SDS Sample Buffer was subjected to ultrasonication with a sonifier, then incubated at 90° C. for five minutes.
(§16) (2) The mixture was vortexed and centrifuged at 15,000 rpm for five minutes at 4° C.
(§17) (3) The supernatant of the centrifuged sample was applied to two 7.5% acrylamide gel slabs placed in an electrophoresis tank filled with 1×SDS-PAGE Running Buffer (25 mM Tris, 0.2 M Glycin, and 1% SDS). Electrophoresis was carried out under a constant current of 40 mA for about 80 to 90 minutes.
(§18) (1) A PVDF membrane cut in the same size as the gel slab was immersed in methanol for about 15 seconds and then shaken in Transfer Buffer C solution (25 mM Tris, 0.02% SDS, 2% methanol and 40 mM 6-aminohexanoic acid) at room temperature to swell for 15 minutes. Filter paper for blotting was cut into a 10-cm square.
(§19) (2) On the blotting apparatus were placed sequentially two pieces of filter paper immersed in A solution (0.3 M Tris, 0.02% SDS and 2% methanol), two pieces of filter paper immersed in B solution (25 mM Tris, 0.02% SDS and 2% methanol), and the membrane thereon. The gel slab after electrophoresis, and finally two pieces of filter paper immersed in C solution was placed thereon, and the apparatus was closed.
(§20) (3) The protein was transferred to the membrane at 15 V for 30 minutes.
(§21) (1) The following procedure was all carried out at room temperature. After the protein transfer, the membrane was placed into a vial containing 1×TTBS (0.2 M Tris, 1.5 M NaCl, 0.2% Tween 20) and washed for 15 minutes.
(§22) (2) TTBS was discarded, and about 10 ml of Block Ace was added and blocked on a shaker for one hour.
(§23) (1) The primary antibodies (p44/42 MAP Kinase Antibody and Phospho-p44/42 MAP Kinase Antibody) were each diluted 1000-fold with TTBS.
(§24) (2) After blocking, the Block Ace solution was removed, the solution of the primary antibody was added and allowed to react on the shaker for two hours.
(§25) (1) The secondary antibody (Anti-rabbit Ig, Horseradish Peroxidase linked F(ab′)2 fragments) was diluted 5000-fold with TTBS.
(§26) (2) The primary antibody solution was removed and the membrane was washed three times on the shaker in TTBS for five to ten minutes each.
(§27) (3) TTBS was removed and the solution of secondary antibody was added and left for 1 hour on the shaker.
(§28) (1) 2 ml each of Detection Reagent 1 and Detection Reagent 2 from ECL kit were mixed together on ice.
(§29) (2) The solution of secondary antibody was removed from the membrane reacted with the secondary antibody and then washed three times on the shaker in TTBS for five minutes each.
(§30) (3) The liquid was thoroughly removed from the membrane, which was then placed in a plastic bag, and 2 ml of the Detection Reagent mixture was added per each membrane.
(§31) (4) The membrane was kept in contact with a film in the cassette for one to five minutes, and the film was developed using an automatic developing machine.

human GPR40 (hGPR40) [3] = molecular target: T2, human GPR40 (hGPR40) (Homo sapiens, UniProt O14842); experiment: Determination of intracellular Ca2+ concentration (FLIPR), cell line TXGPR40; conditions: TXGPR40 cells
T2 construct: expressed in transfected cells; doxycycline-inducible expression vector
Experimental: as §1, §2, §3, §4, §5, §6, §7

human GPR120 (hGPR120) [4] = molecular target: T1, human GPR120 (hGPR120); experiment: Determination of intracellular Ca2+ concentration (FLIPR), cell line GPR120/Flp-in; conditions: GPR120/Flp-in cells
Experimental: as §1, §2, §3, §4, §5, §6, §7

human GPR40 (hGPR40) [5] = molecular target: T2, human GPR40 (hGPR40); experiment: ERK assay, screening for GPR40 ligands in cell line TXGPR40; conditions: ligand 100 μM, TXGPR40 cells, class relative to LA
Experimental: as §8, §9, §10, §11, §12, §13, §14, §15, §16, §17, §18, §19, §20, §21, §22, §23, §24, §25, §26, §27, §28, §29, §30, §31

[6] = relative fluorescence intensity vs LA at 10 μM

T2 sequence (O14842 whole entry): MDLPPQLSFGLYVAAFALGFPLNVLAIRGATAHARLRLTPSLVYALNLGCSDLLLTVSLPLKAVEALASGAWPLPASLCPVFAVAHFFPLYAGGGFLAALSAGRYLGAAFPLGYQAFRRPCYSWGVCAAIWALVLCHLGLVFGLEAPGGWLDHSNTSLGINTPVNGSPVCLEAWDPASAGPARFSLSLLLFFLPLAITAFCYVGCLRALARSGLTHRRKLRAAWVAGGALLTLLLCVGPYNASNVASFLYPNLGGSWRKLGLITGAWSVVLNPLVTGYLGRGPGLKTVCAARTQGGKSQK

Row | SMILES | agonistic activity for hGPR120 (in words) (human GPR120 (hGPR120) [1]) | selectivity for GPR120 in ERK assay (in words) (human GPR120 (hGPR120) [2]; GPR120 versus GPR40) | ERK activation for GPR120 (in words) (human GPR120 (hGPR120) [2]; TXGPR120 cells, FIGS. 5-8) | ERK/GPR120 10 μM (human GPR120 (hGPR120) [2]; ligand 10 μM, TXGPR120 cells, class relative to LA) | ERK/GPR120 100 μM (human GPR120 (hGPR120) [2]; ligand 100 μM, TXGPR120 cells, class relative to LA) | EC50 (human GPR40 (hGPR40) [3]; maximum fluorescence intensity vs ligand concentration, read-out: [Ca^2+]/GPR40 pEC50 (converted)) | [Ca^2+]/GPR40 10 μM (ratio vs. LA) (human GPR40 (hGPR40) [3]; [6]) | EC50 (human GPR120 (hGPR120) [4]; maximum fluorescence intensity vs ligand concentration, read-out: [Ca^2+]/GPR120/Flp-In pEC50 (converted)) | [Ca^2+]/GPR120/Flp-In 10 μM (ratio vs. LA) (human GPR120 (hGPR120) [4]; [6]) | selectivity between GPR40 and GPR120 (in words), from Tables 3 and 4 (human GPR120 (hGPR120) [1]; GPR40 versus GPR120, Ca2+ and ERK results) | EC50 (human GPR120 (hGPR120) [1]; TXGPR120 cells, maximum fluorescence intensity vs ligand concentration, read-out: [Ca^2+]/GPR120 pEC50 (converted)) | [Ca^2+]/GPR120 10 μM (ratio vs. LA) (human GPR120 (hGPR120) [1]; relative fluorescence intensity vs LA at 10 μM, TXGPR120 cells) | ERK/GPR40 100 μM (human GPR40 (hGPR40) [5])
1 | CCCCCCN(CCOc1ccc(CCC(=O)O)cc1)c1ccccn1 [NCP06] | exhibit a similar effect | – | – | – | – | – | – | – | – | – | – | – | –
2 | COc1cccc(N(CCOc2ccc(CCCC(=O)O)cc2)c2ccccc2)n1 [NCG37] | exhibit a similar effect | selective for GRP120 | strongly activate ERK | +++ (+++ denotes a higher value than LA) | +++ (+++ denotes a higher value than LA) | 16.2 µM | 0.28 | 3.47 µM | 0.91 | acting relatively mildly for GPR40 but acting strongly for GPR120 | 17.8 µM | 0.56 | + (+ denotes 0 to 100% of LA)
